# Experimental data from PubChem BioAssay AID2202554 (NIEHS Division of Translational Toxicology (DTT)).
# Records with an inconclusive call do not appear. Active and inactive are the calls of the source. How the calls were made is not given here.
# System: S. typhimurium/E. coli reverse mutation, colony counts
# Experiment: Bacterial reverse mutation test (aka Ames test) summary data;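 further: His-minus Salmonella and trp-minus E. coli WP2 uvrA pKM101 with or without liver S9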
# Text: The Ames test uses bacteria cultures to determine whether a substance causes mutations. Because there is a significant overlap between substances that are mutagens and those that are carcinogens, a quick and inexpensive mutagenicity test is useful as an initial screening for possible carcinogens.
# The Ames test relies on specific strains of S. typhimurium, namely: TA97, TA98, TA100, TA102, TA104, TA1535, TA1537, and TA1538. In addition to the S. typhimurium strains, the test may also use the E. coli strain WP2 uvrA pKM101.
# Each of the bacterial strains has a mutation that prevents it from making an amino acid (a protein building block) required for normal cell growth. The S. typhimurium strains are unable to manufacture histidine; the E. coli strain cannot manufacture tryptophan. The tester strains will not be able to grow without amino acid supplementation, unless the mutated gene is changed back to the correct DNA sequence (reversion mutation). Being exposed to a mutagenic chemical increases the chance that the mutant gene will be restored to the correct sequence, which allows the bacteria to grow and form colonies. Each substance under study is tested in a variety of bacterial strains with different types of altered DNA sequences in order to provide a comprehensive assessment of the mutagenic potential of the substance.
# Some non-mutagenic substances are converted to mutagenic substances when metabolized by the liver; in contrast, some substances that are mutagenic in their natural state are converted to non-mutagens by the liver. All substances are tested in their natural state, as well as in the presence of liver enzymes that can produce this metabolic conversion of the test substance. Extracts of rat, hamster, or mouse liver enzymes (S9 mix) are used for this purpose.
# D. Preparing the Cultures
# Multiple sets of cultures are prepared using a range of doses and different amounts of liver enzymes for each bacterial strain. Each culture is prepared in a test tube containing a suspension of one bacterial strain and either an S9 mix or plain buffer solution. Then the test substance is added. Negative control cultures are established using the same ingredients, but without the test substance. Positive control cultures are established using known mutagens active in particular bacterial strains and metabolic conditions (for example, with or without S9). Once prepared, each culture is incubated for 20 minutes at 37° C. Agar is then added to the cultures, and the contents of each tube are poured onto the surface of a Petri dish that was prepared with standard bacterial culture medium. The plates are then incubated, usually for two days.
# Depending on the substance to be tested, the exposure and incubation processes may be modified. These variations include:
# - Elimination of the 20-minute incubation period in a test tube prior to plating (this method is referred to as the standard plate incorporation method)
# - Enzymatic reduction of azo and diazo substances (this process occurs in the intestine or liver of animals) using a chemical called flavin mononucleotide (FMN) or intestinal bacterial preparations from rats
# - Testing in sealed chambers such as desiccators for volatile and gaseous chemicals.
# To validate the test, a trained investigator compares the number of colonies on the chemical-treated plates to the number of colonies on the negative control plates. If the substance under test is mutagenic, the chemical-treated plates will have a much greater number of colonies than the negative control plates.
# - A positive response is a reproducible, dose-related increase in mutant colonies in any single strain, with or without the addition of S9 metabolic enzymes. While there is no minimum percentage of increase required for a result to be considered positive, a twofold increase in mutant colonies in a treated plate is usually considered to be a positive (mutagenic) response.
# […]
row,Compound,outcome
1,CC(=O)C(C)=NO,inactive; negative
2,CC(C)=CCCC(C)=CC=O,inactive; negative
3,CCCCCCOC(=O)c1ccccc1C(=O)OCCCCCC,inactive; negative
4,O=C1CCC(=O)O1,inactive; negative
5,NCCC(=O)O,inactive; negative
6,CC(=O)O,inactive; negative
7,O=C(O)C(F)(F)C(F)(F)C(F)(F)C(F)(F)C(F)(F)C(F)(F)C(F)(F)C(F)(F)C(F)(F)F,inactive; negative
8,CCCCCCCC/C=C\CCCCCCCC(=O)O (tested in a mixture with another compound),inactive; negative
9,CC(=O)C=Cc1ccco1,inactive; negative
10,Nc1ccccc1S(=O)(=O)O,active; weakly positive
11,ClCc1ccccn1,active; positive
12,C=O,active; positive
13,C[Si](C)(C)N[Si](C)(C)C,inactive; negative
14,O=C1OC2(c3ccccc31)c1cc(Br)c(O)c(Br)c1Oc1c2cc(Br)c(O)c1Br,active; positive
15,C1=CC2C3C=CC(C3)C2C1 (stereo not given),inactive; negative
16,Nc1ccc(O)c(C(=O)O)c1,inactive; negative
17,CN=[N+](C)[O-],active; weakly positive
18,C[CH2][Pb]([Cl])([CH2]C)[CH2]C,inactive; negative
19,CCCCCCCCOC(=O)c1ccccc1C(=O)OCCCCCCCC,inactive; negative
20,O=P(OCCCl)(OCCCl)OCCCl,inactive; negative
21,Cc1c(N(C)C)c(=O)n(-c2ccccc2)n1C,active; weakly positive
22,O=c1c(O)c(-c2ccc(O)c(O)c2)oc2cc(O)cc(O)c12,active; positive
23,[Co],active; positive
24,Nc1cc(Cl)cc(Cl)c1,inactive; negative
25,C=CCOC(C)=O,active; positive

row,Compound,outcome
1,Cc1cccc(C(=O)O)c1,inactive; negative
2,CC(CCN(C)C)N(C)C (stereo not given),inactive; negative
3,O=[N+]([O-])c1cccc2ccccc12,active; positive
4,CC(COc1ccccc1)N(CCCl)Cc1ccccc1 (stereo not given),active; positive
5,CS(=O)(=O)c1ccc(C(=O)C2C(=O)CCCC2=O)c([N+](=O)[O-])c1,active; positive
6,N#CCCC#N,inactive; negative
7,CC(C)CN,inactive; negative
8,[O]=[Zr],inactive; negative
9,Cc1ccc(O)cc1,inactive; negative
10,CC(C)OC(=O)Cc1ccccc1,inactive; negative
11,O=C(O)c1cc(Cl)cc(Cl)c1,inactive; negative
12,CCn1cc[n+](C)c1,inactive; negative
13,CC1(C)S[C@@H]2[C@H](NC(=O)COc3ccccc3)C(=O)N2[C@H]1C(=O)O,inactive; negative
14,Clc1nc2ccccc2nc1Cl,inactive; negative
15,Oc1cccc(Nc2ccccc2)c1,inactive; negative
16,CN(C)CCN(C)C,inactive; negative
17,N#CCc1ccccc1,inactive; negative
18,Nc1cc(Cl)ccc1O,active; weakly positive
19,CCOS(C)(=O)=O,active; positive
20,COc1ccccc1O,inactive; negative
21,C#CCO,active; positive
22,Cc1cc(O)ccc1Cl,inactive; negative
23,CC(=O)c1c(C)c([N+](=O)[O-])c(C(C)(C)C)c([N+](=O)[O-])c1C,inactive; negative
24,CC(C)[N+](C)(CCOC(=O)C1c2ccccc2Oc2ccccc21)C(C)C,inactive; negative
25,COc1cccc(N)c1,active; positive
